The values below come from PubChem BioAssay AID1648 (Sanford-Burnham Center for Chemical Genomics, 2009).

The target of this experiment is Serine/threonine-protein kinase mTOR (Homo sapiens) (UniProt P42345). In words: mTOR FRB domain ligand binding – biophysical, NMR (AID 1648). As to conditions: NMR binding to FRB domain, chemical shift.

Calls of active or inactive are those of the source. No rule for the calls is given here. Some results are limits rather than exact numbers.

Sequence of Serine/threonine-protein kinase mTOR (Homo sapiens) (P42345 2015-2114): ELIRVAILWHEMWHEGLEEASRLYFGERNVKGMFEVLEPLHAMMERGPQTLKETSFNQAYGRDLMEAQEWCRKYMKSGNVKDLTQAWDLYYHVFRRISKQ

What is called Kd is the concentration at which binding is half-saturated. As to `CC12CN(CC#N)CC(C)(CN(CC#N)C1)C2=O`, the Kd was > 4 mM (inactive). Turning to `O=C(/C=C(\O)c1ccccc1)c1ccccc1O`, the Kd was > 4 mM (inactive). Next, `Cn1cc(C(=O)N/N=C/c2ccccc2)ccc1=O`: > 4 mM (inactive); `Cc1ccc(S(=O)(=O)CCc2ccccn2)cc1`: > 4 mM (inactive). Consider `COc1cccc(-c2cc(=O)c3cc(OC)ccc3o2)c1`, for which the Kd is > 4 mM (inactive). Consider `CC[C@@H]1[C@@H](O)N2C3C[C@H]1C1C(O)[C@]4(C[C@@H]12)c1ccccc1N(C)[C@@H]34` (some centres not stated), for which the Kd was > 4 mM (inactive). The figure for `NC(=O)C1CCN(S(=O)(=O)c2ccccc2)CC1` is > 4 mM (inactive); for `O=C(O)CCNc1n[nH]c(=O)[nH]c1=O` it is > 4 mM (inactive); for `CN1C(=O)/C(=C/c2ccccc2O)NC1=S` it is > 4 mM (inactive).

Consider `NC(=O)C1(S(=O)(=O)c2ccccc2)CC1`, for which the Kd was > 4 mM (inactive). Consider `N#Cc1nc(-c2ccccc2Cl)oc1N1CCOCC1`, for which the Kd is > 4 mM (inactive). For the compound `O=C(Nc1cnccn1)c1ccncc1`, the Kd was > 4 mM (inactive). In the case of `O=C1NC(=S)NC(=O)C1=Cc1ccccc1O`, the Kd is > 4 mM (inactive). In the case of `COC(=O)/C(C)=C\CC12OC(C)(C)C3CC(C=C4C(=O)c5c(OC)c6c(c(CC=C(C)C)c5OC431)OC(C)(CCC=C(C)C)C=C6)C2=O` (configuration not stated), the Kd was > 4 mM (inactive). Consider `C=C[C@@](C)(O)CCC1C(=C)C[C@H](O)C2C(C)(C)CCCC12C` (some centres not stated), for which the Kd is > 4 mM (inactive). Next, `O=C1NC(=O)C(Cc2ccccc2)C(=O)N1`: > 4 mM (inactive). Turning to `CNc1nc(N)c(C(=O)C(C)(C)C)s1`, the Kd was > 4 mM (inactive). Next, `Cc1csc(NC(=O)c2ccoc2C)n1`: > 4 mM (inactive); `CCn1c(-c2ccccc2)n[nH]c1=S`: > 4 mM (inactive); `Cc1noc(C)c1C(=O)NCc1cccs1`: > 4 mM (inactive). Consider `Cn1c(=O)c2c([nH]c(=O)n2C)n(C)c1=O`, for which the Kd is > 4 mM (inactive).

`OCc1ccc(-n2cncn2)cc1`: the Kd was > 4 mM (inactive). As for `Cn1c(NCc2ccco2)nc2ccccc21`, the Kd is > 4 mM (inactive). As for `O=C(C1CCCCC1)N1CCN(c2ccccc2F)CC1`, the Kd is > 4 mM (inactive). Next, `O=c1c[n+]([O-])c2ccccc2n1OCc1ccccc1`: > 4 mM (inactive); `Oc1ccc(-n2ccnc2)cc1`: > 4 mM (inactive). Consider `[O-][n+]1onc2c1CCc1c-2nn(-c2ccccc2)[n+]1[O-]`, for which the Kd is > 4 mM (inactive).

Turning to `CC(=O)c1cc(-c2nc3ccccc3n2C)n(C)c1`, the Kd was > 4 mM (inactive).

Turning to `CC(=O)Oc1ccccc1N1C(=O)C=CC1=O`, the Kd was > 4 mM (inactive). Consider `O=S(=O)(Cc1ccccc1Cl)Nc1ccccn1`, for which the Kd was > 4 mM (inactive).

Take `CC(=O)O[C@@H]1C[C@@]2(C)[C@H](c3ccoc3)C[C@H]3O[C@]32[C@]2(C)C(=O)C(O)=C3C(C)(C)C(=O)C=C[C@]3(C)C12` (some centres not stated): the Kd was > 4 mM (inactive). With `CSc1nc(O)cc(=O)[nH]1`, the Kd is > 4 mM (inactive). Regarding `CC1(C)C2CC[C@]3(C)C(C(=O)C=C4[C@H]5C[C@@](C)(C(=O)O)CC[C@]5(C)CC[C@]43C)[C@@]2(C)CC[C@@H]1O` (some centres not stated), the Kd was > 4 mM (inactive).

Regarding `NC(=O)C1CCN(c2ncnc(N)c2[N+](=O)[O-])CC1`, the Kd was > 4 mM (inactive). The figure for `O=C(Nc1nccs1)c1ccc(=O)[nH]n1` is > 4 mM (inactive). For `OCc1ccccc1CN1CCOCC1`, the Kd was > 4 mM (inactive). Turning to `Cc1cc(C)c2ccc[n+]([O-])c2c1O`, the Kd is > 4 mM (inactive). The figure for `NC1CS(=O)(=O)CC1O` (configuration not stated) is > 4 mM (inactive); for `CC(C)NC(=O)c1cc(-n2cnnc2)ccc1Cl` it is > 4 mM (inactive). As for `CSc1nc(-c2ccco2)nn1S(C)(=O)=O`, the Kd was > 4 mM (inactive). The figure for `COc1ccc(/C=C/c2cc(O)cc(O)c2)cc1` is > 4 mM (inactive). The figure for `c1coc(CNc2nc(-c3ccncc3)cs2)c1` is > 4 mM (inactive); for `Nc1nc(-c2cccnc2)nn1C(=O)Cc1ccccc1` it is > 4 mM (inactive); for `CC(C)c1c(O)ccc2c1CCC1C(C)(C)CCC[C@]21C` (some centres not stated) it is > 4 mM (inactive). `Cc1cc(C)n2nc(SCC(=O)c3ccccc3)nc2n1`: the Kd is > 4 mM (inactive). Consider `COc1cc(OC)c(-c2nc3cnccc3n2C)cc1OC`, for which the Kd is > 4 mM (inactive). As to `Cc1cc(C)nc(NC(N)=NCc2ccco2)n1`, the Kd is > 4 mM (inactive). As to `CC1CCC(N2CCN(c3ncccn3)CC2)CC1` (configuration not stated), the Kd was > 4 mM (inactive). As to `Cc1cc(C)n2c(SCc3cccs3)nnc2n1`, the Kd was > 4 mM (inactive). Take `Nc1nc(O)c(C2=c3cc(Cl)ccc3=NC2=O)s1`: the Kd was > 4 mM (inactive). For the compound `O=C(O)c1cccc2c1OCCO2`, the Kd is > 4 mM (inactive). Take `c1ccc(CCN2CCN(CCc3ccccn3)CC2)nc1`: the Kd is > 4 mM (inactive).

Regarding `COc1ccc(/C=C2/SC(N)=NC2=O)c(OC)c1`, the Kd is > 4 mM (inactive). Turning to `CC(=O)Nc1cccc(N2CCCC2=O)c1`, the Kd is > 4 mM (inactive). Regarding `C=C1C2CC[C@@]3(C)[C@H](c4ccoc4)OC(=O)C[C@]13O[C@H]1CC(=O)C(C)(C)[C@H](C(OC(C)=O)C(=O)OC)[C@@]21C` (some centres not stated), the Kd was > 4 mM (inactive). The figure for `COCc1nc(-c2cc(Br)ccc2OC)no1` is > 4 mM (inactive).

For `O=c1ccc2cc(O[C@@H]3O[C@H](CO)[C@@H](O)[C@H](O)[C@H]3O)c(O)cc2o1`, the Kd was > 4 mM (inactive). Turning to `CCOC(=O)c1[nH]c(C)cc1C`, the Kd was > 4 mM (inactive).

For `Cc1nc2ccccc2c(=O)n1CCCO`, the Kd was > 4 mM (inactive).

`Cc1cc(C)nc(Nc2n[nH]c(Cc3ccccc3)n2)n1`: the Kd is > 4 mM (inactive). Take `CC(=O)OC/C=C(\C)CC/C=C(\C)CC/C=C(\C)CC/C=C(\C)CC/C=C(\C)CC/C=C(\C)CC/C=C(\C)CC/C=C(\C)CCC=C(C)C`: the Kd was > 4 mM (inactive). Turning to `Oc1ccccc1N=Cc1cccnc1`, the Kd is > 4 mM (inactive). For the compound `O=S1(=O)CCC(N2CCCCC2)C1` (configuration not stated), the Kd is > 4 mM (inactive).

`COc1cc(-c2csc(C)n2)ccc1O`: the Kd was > 4 mM (inactive).

On to `Cc1ccc(/C=N/NC(N)=O)o1`, for which the Kd was > 4 mM (inactive). As for `O=C(O)c1cccc(O)c1O`, the Kd was > 4 mM (inactive). For `NC(=S)NC(=O)CN1C(=O)c2ccccc2C1=O`, the Kd was > 4 mM (inactive). Turning to `Cn1cnc2c(Cl)ncnc21`, the Kd is > 4 mM (inactive).

In the case of `C=CC(C1=CC(=O)C(OC)=CC1=O)c1ccccc1` (configuration not stated), the Kd is > 4 mM (inactive). In the case of `NCCN=C1NS(=O)(=O)c2ccccc21`, the Kd is > 4 mM (inactive). The figure for `Cc1oc(-c2ccccc2)nc1CC(=O)O` is > 4 mM (inactive); for `Cc1onc(-c2ccccc2)c1C(=O)O` it is > 4 mM (inactive).
